Laboratory results published in BigSolDB 2.1.

N[C@@H](C(=O)N[C@@H]1C(=O)N2C(C(=O)O)=C(Cl)CS[C@H]12)c1ccccc1.O
solubility (mole fraction)
Conditions | 278.15 K | 283.15 K | 288.15 K | 293.15 K | 298.15 K | 303.15 K | 308.15 K | 313.15 K
in acetone | 2.05e-05 | 2.67e-05 | 3.43e-05 | 4.35e-05 | 5.48e-05 | 6.84e-05 | 8.57e-05 | 0.000108
in ethanol | 2.36e-05 | 3.05e-05 | 3.86e-05 | 4.76e-05 | 5.71e-05 | 6.72e-05 | 7.92e-05 | 9.55e-05
in methanol | 8.68e-05 | 0.000101 | 0.000115 | 0.000129 | 0.000145 | 0.000163 | 0.000186 | 0.000214
in water | 0.000387 | 0.000401 | 0.000417 | 0.000445 | 0.000476 | 0.000511 | 0.000551 | 0.000602
